Test results taken from PMC3865070 (Neuropharmacology, 2013).
Like-named read-outs stand apart in the source and are kept apart here.

Legend:
Format in all cases: cell-based
[1] = molecular target: GluN1(F484A)/N3A (Rattus norvegicus, UniProt P35439+Q9R1M7, F484A); assay: Two-electrode voltage-clamp recordings, Xenopus oocytes expressing GluN1; details: for Hill coefficient (nH): inhibition
[2] = molecular target: wild-type GluN1/N3B receptors (Rattus norvegicus, UniProt P35439+Q8VHN2)
[3] = molecular target: GluN1/N2D (Rattus norvegicus, UniProt P35439); assay: Two-electrode voltage-clamp recordings, Xenopus oocytes expressing GluN1/N2D; details: co-applied with 100 μM glutamate and 0.5 μM glycine
[4] = molecular target: GluN1/N2D (Rattus norvegicus, UniProt P35439+Q62645); assay: as above
[5] = molecular target: GluN1(F484A/T518L)/N3A (Rattus norvegicus, UniProt Q9R1M7); assay: Two-electrode voltage-clamp recordings, Xenopus oocytes expressing GluN1; details: for voltage dependence of inhibition: current-voltage relationship, inhibition at −60 mV and +30 mV; for Hill coefficient (nH): inhibition
Chain of GluN1(F484A/T518L)/N3A (Q9R1M7 24-1115 isoform Q9R1M7-2, other chains not shown): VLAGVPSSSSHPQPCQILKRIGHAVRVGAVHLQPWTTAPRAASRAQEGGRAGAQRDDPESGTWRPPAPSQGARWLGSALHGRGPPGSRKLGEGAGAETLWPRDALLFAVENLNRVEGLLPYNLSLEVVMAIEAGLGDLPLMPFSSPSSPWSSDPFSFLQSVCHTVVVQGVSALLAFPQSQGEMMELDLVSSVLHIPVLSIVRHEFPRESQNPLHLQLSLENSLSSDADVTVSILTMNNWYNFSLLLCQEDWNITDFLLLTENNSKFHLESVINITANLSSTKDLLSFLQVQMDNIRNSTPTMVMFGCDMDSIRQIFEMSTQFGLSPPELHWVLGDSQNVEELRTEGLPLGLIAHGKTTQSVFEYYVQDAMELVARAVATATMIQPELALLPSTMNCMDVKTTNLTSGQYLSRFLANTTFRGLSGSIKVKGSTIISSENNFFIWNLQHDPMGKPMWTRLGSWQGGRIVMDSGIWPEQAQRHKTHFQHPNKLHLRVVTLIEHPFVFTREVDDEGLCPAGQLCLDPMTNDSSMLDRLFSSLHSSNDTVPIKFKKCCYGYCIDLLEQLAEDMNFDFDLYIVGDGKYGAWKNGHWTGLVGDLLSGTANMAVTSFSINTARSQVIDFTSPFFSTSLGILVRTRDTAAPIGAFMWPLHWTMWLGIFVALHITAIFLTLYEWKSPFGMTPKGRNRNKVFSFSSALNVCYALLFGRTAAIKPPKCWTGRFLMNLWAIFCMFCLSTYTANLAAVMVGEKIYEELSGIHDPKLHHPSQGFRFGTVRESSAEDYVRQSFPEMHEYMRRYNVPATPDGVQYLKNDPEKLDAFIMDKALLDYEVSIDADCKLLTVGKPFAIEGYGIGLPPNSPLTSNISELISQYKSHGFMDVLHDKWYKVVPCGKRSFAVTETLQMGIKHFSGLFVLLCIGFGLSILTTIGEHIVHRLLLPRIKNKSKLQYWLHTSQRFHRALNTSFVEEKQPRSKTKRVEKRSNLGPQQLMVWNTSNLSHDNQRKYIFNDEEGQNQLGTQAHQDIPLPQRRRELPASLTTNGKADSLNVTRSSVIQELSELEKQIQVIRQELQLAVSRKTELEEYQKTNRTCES

[6] = molecular target: GluN1/N2A (Rattus norvegicus, UniProt P35439); assay: Two-electrode voltage-clamp recordings, Xenopus oocytes expressing GluN1/N2A; details: co-applied with 100 μM glutamate and 0.5 μM glycine
[7] = molecular target: GluN1/N2A (Rattus norvegicus, UniProt P35439+Q00959); assay: as above
[8] = molecular target: GluN1(T518L)/N3A (Rattus norvegicus, UniProt P35439+Q9R1M7, T518L); assay: Two-electrode voltage-clamp recordings, Xenopus oocytes expressing GluN1; details: for Hill coefficient (nH): inhibition
Chain of GluN1(T518L)/N3A (Q9R1M7 24-1115 isoform Q9R1M7-2 limits assumed, stated change not applied, other chains not shown): as the sequence (Q9R1M7 24-1115 isoform Q9R1M7-2, other chains not shown) above

[9] = molecular target: GluN1(F484A/T518L)/N3B (Rattus norvegicus, UniProt Q8VHN2); assay: as above; details: for Hill coefficient (nH): inhibition
Chain of GluN1(F484A/T518L)/N3B (Q8VHN2 25-1002, stated change not applied, other chains not shown): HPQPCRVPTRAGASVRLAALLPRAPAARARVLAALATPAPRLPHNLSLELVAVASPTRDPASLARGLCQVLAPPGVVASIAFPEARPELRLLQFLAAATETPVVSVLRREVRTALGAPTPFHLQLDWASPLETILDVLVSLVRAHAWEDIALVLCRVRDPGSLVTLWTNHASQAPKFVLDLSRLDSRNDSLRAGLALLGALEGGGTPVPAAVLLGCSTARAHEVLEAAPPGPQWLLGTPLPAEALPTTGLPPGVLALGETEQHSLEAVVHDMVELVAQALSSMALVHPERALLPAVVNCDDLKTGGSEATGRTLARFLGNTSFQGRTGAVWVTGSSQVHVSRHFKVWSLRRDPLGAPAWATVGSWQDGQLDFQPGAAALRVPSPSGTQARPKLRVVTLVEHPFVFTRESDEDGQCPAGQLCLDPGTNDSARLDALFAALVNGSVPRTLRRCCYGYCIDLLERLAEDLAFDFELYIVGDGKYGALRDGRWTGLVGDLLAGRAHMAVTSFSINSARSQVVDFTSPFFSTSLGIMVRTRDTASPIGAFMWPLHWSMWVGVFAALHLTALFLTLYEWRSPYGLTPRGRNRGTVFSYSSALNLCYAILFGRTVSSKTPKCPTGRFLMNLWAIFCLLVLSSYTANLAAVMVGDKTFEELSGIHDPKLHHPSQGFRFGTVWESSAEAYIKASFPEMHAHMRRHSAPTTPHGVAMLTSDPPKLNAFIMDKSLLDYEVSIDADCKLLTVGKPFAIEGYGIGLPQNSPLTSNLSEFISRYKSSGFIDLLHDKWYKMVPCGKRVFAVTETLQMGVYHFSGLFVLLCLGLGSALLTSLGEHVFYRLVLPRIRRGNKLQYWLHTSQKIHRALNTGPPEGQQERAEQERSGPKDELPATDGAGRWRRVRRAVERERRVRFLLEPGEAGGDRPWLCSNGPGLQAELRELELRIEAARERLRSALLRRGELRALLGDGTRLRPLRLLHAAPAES

[10] = molecular target: GluN1/N2B (Rattus norvegicus, UniProt P35439+Q00960); assay: Two-electrode voltage-clamp recordings, Xenopus oocytes expressing GluN1/N2B
[11] = molecular target: GluN1/N2C (Rattus norvegicus, UniProt P35439+Q00961); assay: Two-electrode voltage-clamp recordings, Xenopus oocytes expressing GluN1/N2C
[12] = molecular target: GluN1/N2C (Rattus norvegicus, UniProt P35439); assay: as above; details: co-applied with 100 μM glutamate and 0.5 μM glycine
[13] = molecular target: GluK2 (Rattus norvegicus, UniProt P42260); assay: Two-electrode voltage-clamp recordings, Xenopus oocytes expressing GluK2
Chain of GluK2 (P42260 32-908): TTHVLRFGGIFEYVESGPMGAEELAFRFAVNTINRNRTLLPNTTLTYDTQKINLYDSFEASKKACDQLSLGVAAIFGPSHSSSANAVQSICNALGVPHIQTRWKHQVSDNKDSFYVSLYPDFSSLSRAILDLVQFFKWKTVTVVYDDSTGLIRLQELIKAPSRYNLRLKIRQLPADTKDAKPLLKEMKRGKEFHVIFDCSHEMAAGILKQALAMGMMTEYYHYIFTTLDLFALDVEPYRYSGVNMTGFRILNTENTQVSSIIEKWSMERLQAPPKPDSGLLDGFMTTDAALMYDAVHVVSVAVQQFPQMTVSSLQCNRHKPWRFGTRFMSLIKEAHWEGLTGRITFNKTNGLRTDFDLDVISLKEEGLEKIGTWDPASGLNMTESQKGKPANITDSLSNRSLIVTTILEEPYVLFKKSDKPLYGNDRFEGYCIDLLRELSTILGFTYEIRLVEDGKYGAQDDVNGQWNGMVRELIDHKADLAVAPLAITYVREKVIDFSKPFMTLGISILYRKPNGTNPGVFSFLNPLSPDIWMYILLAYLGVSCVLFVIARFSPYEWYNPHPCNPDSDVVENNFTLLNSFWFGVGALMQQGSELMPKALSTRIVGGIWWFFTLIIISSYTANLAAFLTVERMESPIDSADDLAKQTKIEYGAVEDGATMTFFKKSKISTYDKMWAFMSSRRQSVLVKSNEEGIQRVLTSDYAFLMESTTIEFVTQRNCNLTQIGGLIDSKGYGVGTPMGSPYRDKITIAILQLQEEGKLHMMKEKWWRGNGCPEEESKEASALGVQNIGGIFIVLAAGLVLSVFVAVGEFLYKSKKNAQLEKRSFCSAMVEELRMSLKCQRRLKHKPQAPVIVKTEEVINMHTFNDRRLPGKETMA

[14] = molecular target: GluA1 (Rattus norvegicus, UniProt P19490); assay: Two-electrode voltage-clamp recordings, Xenopus oocytes expressing GluA1
Chain of GluA1 (P19490 19-907): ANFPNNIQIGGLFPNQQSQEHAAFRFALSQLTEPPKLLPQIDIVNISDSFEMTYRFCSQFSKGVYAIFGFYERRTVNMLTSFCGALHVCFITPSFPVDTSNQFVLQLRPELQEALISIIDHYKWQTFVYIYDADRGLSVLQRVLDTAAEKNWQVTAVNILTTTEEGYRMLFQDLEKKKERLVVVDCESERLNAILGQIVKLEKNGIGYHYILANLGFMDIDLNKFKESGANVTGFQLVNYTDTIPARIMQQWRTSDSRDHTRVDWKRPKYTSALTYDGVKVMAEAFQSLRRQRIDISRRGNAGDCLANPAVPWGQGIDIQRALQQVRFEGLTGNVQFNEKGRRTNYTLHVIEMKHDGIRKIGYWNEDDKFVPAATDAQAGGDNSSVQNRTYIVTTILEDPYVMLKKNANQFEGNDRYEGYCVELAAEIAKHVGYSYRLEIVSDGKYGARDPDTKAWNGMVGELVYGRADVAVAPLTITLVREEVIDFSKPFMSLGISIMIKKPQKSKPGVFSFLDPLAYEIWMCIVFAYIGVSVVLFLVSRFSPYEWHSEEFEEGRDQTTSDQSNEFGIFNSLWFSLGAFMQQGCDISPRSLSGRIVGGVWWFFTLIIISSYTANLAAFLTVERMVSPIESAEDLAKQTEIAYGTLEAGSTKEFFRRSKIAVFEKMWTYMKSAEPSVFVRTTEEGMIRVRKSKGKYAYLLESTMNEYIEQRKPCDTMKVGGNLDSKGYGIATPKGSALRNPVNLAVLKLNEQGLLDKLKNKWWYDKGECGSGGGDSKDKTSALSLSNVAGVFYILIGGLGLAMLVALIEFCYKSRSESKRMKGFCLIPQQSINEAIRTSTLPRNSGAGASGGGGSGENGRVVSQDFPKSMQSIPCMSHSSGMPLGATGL

[15] = molecular target: GluN1/N2B (Rattus norvegicus, UniProt P35439); assay: Two-electrode voltage-clamp recordings, Xenopus oocytes expressing GluN1/N2B; details: co-applied with 100 μM glutamate and 0.5 μM glycine
[16] = read-out: inhibition of current responses to 10 μM glycine
[17] = IC50, co-applied with 100 μM glutamate and 0.5 μM glycine
[18] = IC50, co-applied with 100 μM glycine, N.E., no significant effect at 300 μM
[19] = co-applied with 100 μM glycine, N.E., no significant effect at 300 μM

Chain of wild-type GluN1/N3B receptors (Q8VHN2 25-1002, other chains not shown): as the sequence (Q8VHN2 25-1002, stated change not applied, other chains not shown) above
Chain of GluN1(F484A)/N3A (Q9R1M7 24-1115 isoform Q9R1M7-2 limits assumed, stated change not applied, other chains not shown): as the sequence (Q9R1M7 24-1115 isoform Q9R1M7-2, other chains not shown) above

`O=C(O)c1cc(C(=O)c2ccc(Cl)cc2Cl)c[nH]1` [TK30, 4-(2,4-dichlorobenzoyl)-1H-pyrrole-2-carboxylic acid] was tested. Which IC50 [1] did it give?
Its IC50 is 34 µM.

What about the Maximal inhibition ([1]; co-applied with 100 μM glycine) of the same compound?
The Maximal inhibition was 100%.

What about the “Hill coefficient (nH)” value ([1]; co-applied with 100 μM glycine) of the same compound?
Its value is −1.16.

And the inhibition at 30 µM [2, 16]?
The inhibition at 30 µM was 70 ± 4%.

And the “Hill coefficient (nH)” value ([3]; inhibition)?
The value was −1.83.

And the IC50 [4, 17]?
Its IC50 is 90 µM.

And the IC50 ([4]; pIC50 ± S.E.M., co-applied with 100 μM glutamate and 0.5 μM glycine)?
Its IC50 is 79.4 µM.

And the IC50 [5, 18]?
Its IC50 is 14 µM.

What about the “voltage dependence of inhibition” value [5] of the same compound?
Its value is “voltage-independent”.

And the “Hill coefficient (nH)” value ([5]; co-applied with 100 μM glycine)?
Its value is −1.44.

And the IC50 ([5]; pIC50 ± S.E.M., co-applied with 100 μM glycine)?
Its IC50 is 15.8 µM.

And the “Hill coefficient (nH)” value ([6]; inhibition)?
The value was −1.39.

What about the IC50 [7] of the same compound?
Its IC50 is 270 µM.

And the IC50 [8]?
Its IC50 is 9.8 µM.

And the Maximal inhibition ([8]; co-applied with 50 μM glycine)?
The Maximal inhibition was 100%.

And the “Hill coefficient (nH)” value ([8]; co-applied with 50 μM glycine)?
The value was −1.50.

And the IC50 [9]?
Its IC50 is 7.4 µM.

And the “Hill coefficient (nH)” value ([9]; co-applied with 100 μM glycine)?
The value was −1.37.

What about the IC50 [10] of the same compound?
Its IC50 is > 300 µM.

And the IC50 [11]?
Its IC50 is 120 µM.

And the “Hill coefficient (nH)” value ([12]; inhibition)?
Its value is −1.77.

What does the source list for `O=C(O)c1cc(Nc2nc(-c3cccnc3)cs2)ccc1O` [TK13]?
IC50 ([1]; co-applied with 100 μM glycine): 93 µM; Maximal inhibition ([1]; co-applied with 100 μM glycine): 100%; pIC50 ± S.E.M. ([1]; co-applied with 100 μM glycine): 4.0 ± 0.03; Hill coefficient (nH) ([1]; co-applied with 100 μM glycine): −1.04; inhibition of current responses to 10 μM glycine ([2]; 100 μM compound): 55 ± 3.1%; IC50 [3]: > 300 µM; IC50 ([13]; co-applied with 30 μM glutamate, oocytes incubated 5 min in 10 μM concanavalin A): > 300 µM; pIC50 ± S.E.M. ([5]; co-applied with 100 μM glycine): 4.2 ± 0.06; IC50 [5, 19]: 67 µM; voltage dependence of inhibition [5]: voltage-independent; Hill coefficient (nH) ([5]; co-applied with 100 μM glycine): −1.04; IC50 [6]: > 300 µM; IC50 ([14]; co-applied with 30 μM glutamate): > 300 µM; IC50 ([8]; co-applied with 50 μM glycine): 100 µM; Maximal inhibition ([8]; co-applied with 50 μM glycine): 100%; pIC50 ± S.E.M. ([8]; co-applied with 50 μM glycine): 4.0 ± 0.05; Hill coefficient (nH) ([8]; co-applied with 50 μM glycine): −1.02; IC50 ([9]; co-applied with 100 μM glycine): 49 µM; pIC50 ± S.E.M. ([9]; co-applied with 100 μM glycine): 4.3 ± 0.03; Hill coefficient (nH) ([9]; co-applied with 100 μM glycine): −0.77; IC50 [15]: > 300 µM; IC50 [12]: > 300 µM

`O=c1[nH]c2nonc2nc1O` [TK80, 6-hydroxy-[1,2,5]oxadiazolo[3,4-b]pyrazin-5(4H)-one] was tested. Which inhibition at 100 µM [2, 16] did it give?
Its inhibition at 100 µM is 65 ± 4.3%.

And the Ki [4]?
Its Ki is > 210 µM.

What about the IC50 [4, 17] of the same compound?
The IC50 was > 300 µM.

And the IC50 [13]?
The IC50 was > 300 µM.

What about the IC50 [5, 18] of the same compound?
Its IC50 is > 300 µM.

What about the IC50 [5, 19] of the same compound?
The IC50 was “N.E”.

What about the IC50 [7] of the same compound?
Its IC50 is > 300 µM.

And the Ki [7]?
The Ki was > 290 µM.

What about the IC50 [14] of the same compound?
The IC50 was > 300 µM.

And the IC50 [9]?
Its IC50 is 79 µM.

What about the Ki [9] of the same compound?
The Ki was 39 µM.

What about the “voltage dependence of inhibition” value ([9]; current-voltage relationship, inhibition at −60 mV and +30 mV) of the same compound?
The value was “voltage-independent”.

What about the “Hill coefficient (nH)” value ([9]; co-applied with 100 μM glycine) of the same compound?
Its value is −1.79.

And the IC50 [10]?
Its IC50 is > 300 µM.

What about the Ki [10] of the same compound?
The Ki was > 260 µM.

What about the IC50 [11] of the same compound?
The IC50 was > 300 µM.

What about the Ki [11] of the same compound?
The Ki was > 260 µM.
